Tests used:
ULK1 = molecular target: T1, ULK1 (Homo sapiens, UniProt O75385); assay: ULK1 inhibition assay; assay type: biochemical; conditions: * = tested as a mixture of regioisomers
T1 sequence (O75385 1-1050): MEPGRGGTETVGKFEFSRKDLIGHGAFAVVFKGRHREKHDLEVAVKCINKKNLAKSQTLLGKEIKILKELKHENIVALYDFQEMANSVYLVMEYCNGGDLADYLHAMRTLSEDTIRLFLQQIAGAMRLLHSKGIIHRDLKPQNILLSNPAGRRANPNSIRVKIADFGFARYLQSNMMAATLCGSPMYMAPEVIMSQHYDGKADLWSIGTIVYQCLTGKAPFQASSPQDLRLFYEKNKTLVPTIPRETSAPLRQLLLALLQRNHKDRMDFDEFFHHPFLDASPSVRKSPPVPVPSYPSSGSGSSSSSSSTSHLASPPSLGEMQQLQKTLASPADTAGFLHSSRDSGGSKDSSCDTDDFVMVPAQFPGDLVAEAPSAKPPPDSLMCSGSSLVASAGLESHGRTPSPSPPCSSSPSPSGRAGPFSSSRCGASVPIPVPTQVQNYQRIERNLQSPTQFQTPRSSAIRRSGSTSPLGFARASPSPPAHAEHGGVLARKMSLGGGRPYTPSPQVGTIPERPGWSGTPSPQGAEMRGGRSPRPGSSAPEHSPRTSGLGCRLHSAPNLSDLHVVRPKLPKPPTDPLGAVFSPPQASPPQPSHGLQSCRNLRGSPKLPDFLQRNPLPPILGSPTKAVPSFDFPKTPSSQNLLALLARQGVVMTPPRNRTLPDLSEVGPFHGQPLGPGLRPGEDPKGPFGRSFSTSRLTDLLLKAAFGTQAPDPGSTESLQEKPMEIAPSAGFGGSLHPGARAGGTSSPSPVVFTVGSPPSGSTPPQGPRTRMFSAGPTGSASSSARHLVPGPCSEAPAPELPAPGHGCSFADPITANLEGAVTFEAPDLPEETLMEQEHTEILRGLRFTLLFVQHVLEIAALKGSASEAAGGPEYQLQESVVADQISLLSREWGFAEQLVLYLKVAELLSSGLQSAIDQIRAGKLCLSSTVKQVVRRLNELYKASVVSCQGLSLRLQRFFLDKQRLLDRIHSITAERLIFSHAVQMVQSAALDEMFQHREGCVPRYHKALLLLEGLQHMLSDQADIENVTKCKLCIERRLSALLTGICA

[1] = test system: phosphorylated ATG13 (P-ATG); assay: Western blot analysis of A549 xenograft tumors; assay type: in vivo, nude mice; conditions: A549 xenograft tumors at end of study
Method: A549 cells (5M cells) were injected bilaterally into the flanks of thirty-six nude mice to create tumor xenografts in order to assess the efficacy of Compound 14 in treating non-small cell lung cancer tumors both alone and in combination with carboplatin, the current standard of care therapy for non-small cell lung cancer. After 11 days of letting tumor cells proliferate (at which point tumors were ˜50 mm^3 in volume), administration of carboplatin, Compound 14, or combinations began. One cohort of six mice received 20 mg/kg twice daily doses of Compound 14 alone, one cohort of six mice received 30 mg/kg twice daily doses of Compound 14 alone, one cohort of six mice received 25 mg/kg doses of carboplatin every three days, one cohort of six mice received 20 mg/kg twice daily doses of Compound 14 in conjunction with 25 mg/kg doses of carboplatin every three days, one cohort of six mice received 30 mg/kg twice daily doses of Compound 14 in conjunction with 25 mg/kg doses of carboplatin every three days, and the remaining six mice were treated with vehicle. Treatment and monitoring was continued until day 53 post inoculation of tumor cells (42 days of treatment).
At the end of the study, Western blot analysis of the tumors from vehicle and Compound 14 monotherapy cohorts was analyzed.

NCI-H358 cells = assay: H358 xenografts treated with ULK inhibitor alone; assay type: in vivo, nude mice; conditions: 30 mg/kg twice daily
Method: NCI-H358 cells (5M cells) were injected bilaterally into the flanks of twenty nude mice to create tumor xenografts in order to assess the efficacy of Compound 14 in treating non-small cell lung cancer tumors. After 32 days of letting tumor cells proliferate (at which point tumors had reach ˜200 mm^3 in volume), one cohort of ten mice was administered 30 mg/kg twice daily doses of Compound 14, and the remaining mice administered vehicle alone. Treatment and monitoring was continued until day 72 post inoculation of tumor cells.

[2] = test system: ULK1, phosphorylated ATG13; assay: Western blot analysis of MIA PaCa-2 xenograft tumors; assay type: in vivo, nude mice; conditions: MIA PaCa-2 xenograft tumors at end of experiment, 20 mg/kg twice daily
Method: MIA PaCa-2 cells were injected bilaterally into the flanks of nude mice to create tumor xenografts in order to assess the efficacy of Compound 14 in treating pancreatic cancer tumors compared to gemcitabine, a current standard of care therapy for pancreatic cancer. After 3 days of letting tumor cells proliferate (at which point tumors were ˜100 mm^3 in volume), administration of gemcitabine or Compound 14 was initiated. One cohort received 20 mg/kg twice daily doses of Compound 14, one cohort received gemcitabine, and the remaining cohort was treated with vehicle. Treatment and monitoring were continued until day 42 post inoculation of tumor cells (30 days of treatment).

MIA PaCa-2 cells = assay: MIA PaCa-2 xenografts, ULK inhibitor alone and in combination with trametinib; assay type: in vivo, nude mice; conditions: day 25
Method: MIA PaCa-2 cells were injected bilaterally into the flanks nude mice to create tumor xenografts in order to assess the efficacy of Compound 14 in treating pancreatic cancer tumors alone and in combination with trametinib, an MEK inhibitor and current standard of care therapy for the treatment of pancreatic cancer. After letting tumor cells proliferate to the point where tumors had reach ˜300 mm^3 in volume, one cohort of mice was administered 20 mg/kg daily doses of Compound 14, one cohort of mice was administered 30 mg/kg daily doses of Compound 14, one cohort of mice was administered 1 mg/kg daily doses of trametinib, one cohort of mice was administered 1 mg/kg daily doses of trametinib in combination with 20 mg/kg daily doses of Compound 14, one cohort of mice was administered 1 mg/kg daily doses of trametinib in combination with 30 mg/kg daily doses of Compound 14, and the remaining cohort of mice was administered vehicle alone. Treatment and monitoring were continued for 25 days.

With CNC(=O)c1ccccc1Nc1nc(Nc2cc(OC)c(OC)c(OC)c2)ncc1Br [Compound 14] the IC50 (ULK1) was < 200 nM, the “phosphorylated ATG13 in tumors (Western blot)” value ([1]; 20 mg/kg twice daily monotherapy) was “some residual phosphorylated ATG13” and the “phosphorylated ATG13 in tumors (Western blot)” value ([1]; 30 mg/kg twice daily monotherapy) was “almost total elimination of phosphorylated ATG13”. For the same molecule, the “% growth of tumor cells relative to the start of treatment” value (NCI-H358 cells) was “clear reduction in average tumor size”, the average tumor volume (NCI-H358 cells; day 32 to day 72 post inoculation) was “no growth during the monitoring period, and even a decrease in tumor size” and the “average tumor mass at the end of the study” value (NCI-H358 cells; day 35 post treatment) was “substantially smaller overall tumor burden compared to control”. The “ULK1 levels in tumor (Western blot)” value [2] was “reduced ULK1 levels compared to vehicle treated”, the “levels of phosphorylated ATG13 in tumor (Western blot)” value [2] was “reduced levels of phosphorylated ATG13” and the “total levels of ATG13 in tumor (Western blot)” value ([2]; versus vehicle) was “comparable”. The “final tumor size (average)” value (MIA PaCa-2 cells; 20 mg/kg daily alone) was ~1000 mm^3 and the “average tumor mass at the end of the study” value (MIA PaCa-2 cells; both combinations: trametinib 1 mg/kg daily with Compound 14 20 or 30 mg/kg daily) was “substantially less tumor mass compared to control and each mono-therapy”.

From US20230130766A1 (SALK INSTITUTE FOR BIOLOGICAL STUDIES, priority 2020, published 2023)
